The results in this text go back to patent US20160367537A1, “COMPOSITIONS AND METHODS FOR THE TREATMENT AND MANAGEMENT OF STEATOSIS IN HUMAN LIVER” (WAKE FOREST UNIVERSITY HEALTH SCIENCES, priority 2013, published 2016).

The target in one data set is T1, SOAT2 (Homo sapiens, UniProt O75908).
T1 sequence (O75908 1-522): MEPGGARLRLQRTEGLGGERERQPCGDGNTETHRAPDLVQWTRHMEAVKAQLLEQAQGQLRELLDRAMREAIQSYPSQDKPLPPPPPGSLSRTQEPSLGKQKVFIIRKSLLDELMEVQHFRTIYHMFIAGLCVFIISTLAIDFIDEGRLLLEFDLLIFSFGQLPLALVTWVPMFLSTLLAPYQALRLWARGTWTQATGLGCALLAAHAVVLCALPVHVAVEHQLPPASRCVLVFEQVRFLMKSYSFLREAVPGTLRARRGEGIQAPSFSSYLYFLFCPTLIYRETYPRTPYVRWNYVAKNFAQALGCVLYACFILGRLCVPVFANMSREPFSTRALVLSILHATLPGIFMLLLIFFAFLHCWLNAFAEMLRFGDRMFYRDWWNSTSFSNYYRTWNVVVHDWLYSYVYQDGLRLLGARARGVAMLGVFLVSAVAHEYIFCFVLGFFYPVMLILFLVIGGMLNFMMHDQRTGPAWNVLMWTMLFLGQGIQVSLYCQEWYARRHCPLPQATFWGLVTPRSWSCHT
Nature of the data set: Specificity for SOAT2 compared to SOAT1.

The next data set is described as follows: Stability in the diet. The format is physicochemical. The note with it: diet admixture.
Data set [1] has as its system lysosomal acid lipase deficient (LAL−/−) mice. Nature of the data set: Mouse model of lysosomal acid lipase deficiency, PRD125 as diet admixture. The format is in vivo. On the procedure:
In the present example, hepatic lipid concentrations and content in a lysosomal acid lipase deficient (LAL^−/−) mouse model were determined in the presence and absence of selective SOAT2 inhibitors. The data are for male lysosomal acid lipase deficient mice on a FVB background. The mice were fed a chow diet for 21 days. During the subsequent 52 or 53 days, 5 mice were fed the chow diet without drug and 3 of 5 to be studied were fed a chow diet supplemented with PRD125 at a dose of 10 mg/kg/day. Animals were ex-sanguinated at 52 days and the blood plasma was collected in EDTA and frozen in liquid nitrogen. The livers, small intestine, and spleen were flushed with saline and rinsed, then also snap frozen in liquid nitrogen. All organs were weighed, and after freezing, approximately 25 mg of tissue was extracted in chloroform methanol, 2:1, for subsequent lipid determinations. Free and total cholesterol was measured enzymatically and esterified cholesterol was determined by difference. Aliquots of the terminal plasma were used for measurement of tissue enzymes.
Mice were studied starting at 21 days of age and studied for 52 to 53 days. Treatment with PRD125 was at 10 mg/kg/day and the compound was given as a diet admixture.

Data set [2] in a line: Absorption after oral intake. The note with it: given in the diet.

Regarding `Cc1ccccc1[C@@H]1OCC2(C)C3C[C@H](OC(=O)c4ccc(C#N)cc4)[C@@]4(C)Oc5cc(-c6cccnc6)oc(=O)c5[C@H](O)C4[C@@]3(C)CC[C@@H]2O1` (some centres unmarked) [PRD125], the “specificity to SOAT2 compared to SOAT1” value at SOAT2 is “over 5000 fold”. Besides, in “Stability in the diet”, the “stability in the diet” value is “stable”. Further, in data set [1] (LAL−/− mice, 10 mg/kg/day as diet admixture), the “decrease of liver cholesterol content versus untreated mice” value is listed as 65%. The serum enzyme levels result in data set [1] (male LAL−/− mice, 10 mg/kg/day as diet admixture, terminal plasma) is “reduced”. The liver cholesterol esters entry in data set [1] (male LAL−/− mice, FVB background, 10 mg/kg/day as diet admixture, from 21 to 52 or 53 days of age) was “significantly reduced”. For the same molecule, the oral effectiveness result in data set [1] (oral, does not need booster injections) is listed as “effective orally”. Moreover, the “cholesterol content of liver” value in data set [1] (treated LAL−/− mice, 10 mg/kg/day as diet admixture (untreated approximately 146 mg/liver)) is roughly 39 mg/liver. Besides, the absorption result in data set [2] is listed as “easily absorbed”.
